In brackets after ≈: the same amount, converted by molar mass. Read-outs that look alike come from different tables or passages of the source.
What was measured:
hTRPV3 = hTRPV3 (Homo sapiens (Human), UniProt Q8NET8); test: Whole-cell patch clamp, hTRPV3 Phase 1 / Phase 2 currents; assay type: cell-based
How it was run: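 Whole-cell recordings on induced TRPV3 cells replated on coverslips, held at −40 mV with 400 ms ramps from −120 to +100 mV every 5 s; currents read at −80 and +80 mV. Ringer's external solution; current activated by heating to ≥28 °C or 20 μM 2-APB.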

[1] = Aqueous solubility assay in Normal Ringer Solution; conditions: Normal Ringer Solution; for Solubility Ringer (nM): room temperature; for solubility at 40 min: saline or isotonic, kinetic from dmso stock
Protocol: Following vortex and incubation for a sufficient time (e.g. 40 minutes at room temperature), solutions were filtered, quenched with acetonitrile, and analyzed by Liquid Chromotography. Solubility Limits were determined by comparison to a standard curve.

[2] = Metabolic Stability assay, rat liver microsomes; assay type: in vitro ADME
Protocol: Metabolic Stability assay: The metabolic stability was determined by adding compound dissolved in DMSO to human or rat, liver microsomes. Briefly, assays were run with a starting concentration of 1 μM test article. The reaction was started by addition of NADPH regeneration components at 37° C. at which time an aliquot was immediately quenched in ice-cold acetonitrile/MeOH/H2O solution. Reaction mixture was incubated at 37° C. on a shaker, and additional aliquots were taken at 7, 15, 30 and 60 minutes. Following quench and centrifugation, samples were analyzed on HPLC/MS/MS.

[3] = Phase 1 current, inward, whole-cell patch clamp, read-out: hTRPV3 Patch P1 Inwd
[4] = Phase 1 current, read-out: hTRPV3 (nM) (Phase 1)
[5] = Phase 2 current, inward, whole-cell patch clamp, read-out: hTRPV3 Patch P2 Inwd
[6] = Phase 2 current, read-out: hTRPV3 (nM) (Phase 2)
[7] = Phase 1 current, human TRPV3, read-out: hTRPV3 (nM) Phase 1

hTRPV3, sequence (Q8NET8 whole entry): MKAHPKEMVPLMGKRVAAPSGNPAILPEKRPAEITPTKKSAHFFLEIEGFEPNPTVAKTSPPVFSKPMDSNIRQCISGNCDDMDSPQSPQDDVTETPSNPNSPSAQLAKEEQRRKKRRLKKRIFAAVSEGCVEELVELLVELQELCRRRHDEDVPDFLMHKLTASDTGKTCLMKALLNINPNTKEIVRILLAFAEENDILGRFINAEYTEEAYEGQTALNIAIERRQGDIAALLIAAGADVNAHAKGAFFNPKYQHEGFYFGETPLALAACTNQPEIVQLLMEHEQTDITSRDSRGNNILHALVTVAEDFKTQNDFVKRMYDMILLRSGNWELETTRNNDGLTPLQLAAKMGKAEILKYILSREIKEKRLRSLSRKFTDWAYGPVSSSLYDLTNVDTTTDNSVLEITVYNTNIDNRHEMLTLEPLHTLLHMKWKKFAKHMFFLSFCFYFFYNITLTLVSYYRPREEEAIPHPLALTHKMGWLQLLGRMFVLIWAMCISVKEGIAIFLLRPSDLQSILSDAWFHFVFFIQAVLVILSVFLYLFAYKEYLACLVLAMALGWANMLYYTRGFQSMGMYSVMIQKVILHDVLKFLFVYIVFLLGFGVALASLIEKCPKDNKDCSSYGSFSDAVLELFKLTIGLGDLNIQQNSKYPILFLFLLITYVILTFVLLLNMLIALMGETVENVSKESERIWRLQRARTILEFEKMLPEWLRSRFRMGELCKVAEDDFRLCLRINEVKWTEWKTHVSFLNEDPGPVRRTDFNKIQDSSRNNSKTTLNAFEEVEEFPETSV

| SMILES | IC50 (hTRPV3; [3]) [nM] | IC50 (hTRPV3; [4]) [nM] | Solubility Ringer (nM) [1] | half-life at 1 μM ([2]; read-out: LM T1/2 (min) (rat)) | solubility at 40 min [1] [µM] | IC50 (hTRPV3; [5]) [nM] | IC50 (hTRPV3; [6]) [nM] | IC50 (hTRPV3; [7]) [nM] | half-life at 1 μM ([2]; read-out: LM T1/2 (min) rat) [min] |
| --- | --- | --- | --- | --- | --- | --- | --- | --- | --- |
| CC(C)c1ccccc1Oc1ccc(N2CC[C@H](Oc3ccccn3)C2)c(CCO)c1 [Compound 1-317] | 10 to 100 | 20.8 | BLQ | 12.1 |  |  |  |  |  |
| OCCOc1cc(-c2ccccc2Cl)ccc1N1CC[C@H](Oc2ccc(C(F)(F)F)cn2)C1 [Compound 1-133, (S)-2-(2′-chloro-4-(3-(5-(trifluoromethyl)pyridin-2-yloxy)pyrrolidin-1-yl)biphenyl-3-yloxy)ethanol] | > 1000 | 1120 |  | 55 | 0.56 (≈ 0.268 µg/mL) |  |  |  |  |
| OCCc1cc(-c2ccccc2)ccc1N1CC[C@H](Oc2ccc(C(F)(F)F)cn2)C1 [Compound 1-142, (S)-2-(4-(3-(5-(trifluoromethyl)pyridin-2-yloxy)pyrrolidin-1-yl)biphenyl-3-yl)ethanol] | 100 to 1000 | 275 | BLQ | 65.2 |  |  |  |  |  |
| CCc1ccccc1Oc1ccc(N2CC[C@H](Oc3ccccn3)C2)c(CO)c1 [Compound 1-275] | 10 to 100 | 24.8 |  | 22.8 | ~1 (≈ 0.39 µg/mL) |  |  |  |  |
| CCc1ccccc1Oc1ccc(N2CC[C@H](Oc3ncccc3C)C2)c(CO)c1 [Compound 1-268, (S)-(5-(2-ethylphenoxy)-2-(3-(3-methylpyridin-2-yloxy)pyrrolidin-1-yl)phenyl)methanol] | < 10 | 2.8 |  | 22 | 0.25 (≈ 0.101 µg/mL) | < 10 | ~2.54 |  |  |
| CC(C)c1ccccc1-c1ccc([C@H]2CCN(C(=O)c3ccc(F)cn3)C2)c(CO)c1 [Compound 2-78] | 100 to 1000 |  |  |  | > 15.4 |  |  | 234 | 12.1 |
| Cc1cccnc1C(=O)N1CCC(c2ccc(Oc3ccccc3C(C)C)cc2CO)C1 (stereo not shown) [Compound 2-18, (3-(2-(hydroxymethyl)-4-(2-isopropylphenoxy)phenyl)pyrrolidin-1-yl)(3-methylpyridin-2-yl)methanone] | 100 to 1000 |  |  |  |  |  |  | 314 | 7.81 |
| CCc1ccccc1-c1ccc(C2CCN(C(=O)c3ccc(Cl)cn3)C2)c(CO)c1 (stereo not shown) [Compound 2-51, (5-chloropyridin-2-yl)(3-(2′-ethyl-3-(hydroxymethyl)biphenyl-4-yl)pyrrolidin-1-yl) methanone] | < 10 |  |  |  | ~5.3 (≈ 2.23 µg/mL) |  |  | 7.37 | 14.4 |
| COc1ccccc1-c1ccc(N2CC[C@H](Oc3ccc(C(F)(F)F)cn3)C2)c(CO)c1 [Compound 1-151, (S)-(2′-methoxy-4-(3-(5-(trifluoromethyl)pyridin-2-yloxy)pyrrolidin-1-yl)biphenyl-3-yl)methanol] | 100 to 1000 | 125 | BLQ | 38.9 |  |  |  |  |  |
| O=C(c1cccc(Cl)n1)N1CCC(c2ccc(-c3ccccc3C3CC3)cc2CO)C1 (stereo not shown) [Compound 2-57, (6-chloropyridin-2-yl)(3-(2′-cyclopropyl-3-(hydroxymethyl)biphenyl-4-yl)pyrrolidin-1-yl)methanone] | < 10 |  |  |  |  |  |  | 7.34 | 32.3 |
| OCCc1cc(C(O)c2ccccc2Cl)ccc1N1CC[C@H](Nc2ccc(F)cn2)C1 (stereo partly drawn) [Compound 1-390, 2-(5-((2-chlorophenyl)(hydroxy)methyl)-2-((S)-3-(5-fluoropyridin-2-ylamino)pyrrolidin-1-yl)phenyl)ethanol] | 100 to 1000 | 219 |  | 7.23 | > 13.6 |  |  |  |  |
| CC(C)c1ccccc1-c1ccc(C2CCN(C(=O)c3ncccc3Cl)C2)c(CO)c1 (stereo not shown) [Compound 2-36] | 10 to 100 |  |  |  |  |  |  | 39.3 | 11.2 |
| CC(C)c1ccccc1Oc1ccc(C2CCN(C(=O)c3ccc(Cl)cn3)C2)c(CO)c1 (stereo not shown) [Compound 2-17, (5-chloropyridin-2-yl)(3-(2-(hydroxymethyl)-4-(2-isopropylphenoxy)phenyl)pyrrolidin-1-yl)methanone] | 10 to 100 |  |  |  |  |  |  | 57.4 | 7.93 |
| CCc1cc(F)ccc1Oc1ccc(N2CC[C@H](Oc3ccccn3)C2)c(CO)c1 [Compound 1-330] | 10 to 100 | 49.5 |  | 24.8 |  | 10 to 100 | 56.6 |  |  |
